Values joined by “and” are separate entries in the source; they are usually repeats but may differ in a detail not shown here. Identical values can stand only once. Toxic doses and inconclusive results are not listed. Rule for the calls: active = survival T/C of 150% or more; inactive = T/C below 125% in these data. Numbered stars: 1 amine (or outer) side, 2 acyl side, 3 side chain; on linkers, the order of the positions; unused ones are H or OH. Bridge positions count the residues as written; N and C are the ends. Square brackets hold non-standard residues; d marks the D form. Peptide text beside a SMILES is read from it. I, II: the chains in the order shown. * marks the point of attachment. Actinocin(9to1) = Cc1c2oc3c(C)ccc(C(=O)[*:1])c3nc-2c(C(=O)[*:2])c(N)c1=O; NMeV = CN[CH](C(=O)O)C(C)C; Boc = CC(C)(C)OC(=O)*; Sar = CNCC(=O)O
Test system: P388 leukemia ip, CD2F1 mice, survival T/C
Assay: NCI In Vivo Anticancer Drug Screen. Data for tumor model P388 Leukemia (intraperitoneal) in CD2F1 (CDF1) mice
Settings: endpoint: median survival time, higher = longer survival
Outline: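 Mice carrying the transplanted tumor received test compound or vehicle. Survival was recorded in each group, and the value is the treated-group measurement divided by that of the vehicle-treated control group.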

[1] = dose: 50.0 mg/kg/injection, schedule: Q01DX005 (ip), vehicle: saline with Tween-80
[2] = dose: 100.0 mg/kg/injection, schedule: Q01DX005 (ip), vehicle: saline with Tween-80
[3] = dose: 50.0 mg/kg/injection, schedule: Q01DX005 (ip), vehicle: Klucel (hydroxypropylcellulose) (HPC)
[4] = dose: 100.0 mg/kg/injection, schedule: Q01DX005 (ip), vehicle: Klucel (hydroxypropylcellulose) (HPC)
[5] = dose: 100.0 mg/kg/injection, schedule: Q01DX001 (ip), vehicle: saline with Tween-80
[6] = dose: 200.0 mg/kg/injection, schedule: Q01DX001 (ip), vehicle: saline with Tween-80
[7] = dose: 400.0 mg/kg/injection, schedule: Q01DX001 (ip), vehicle: saline with Tween-80
[8] = dose: 60.0 mg/kg/injection, schedule: Q01DX005 (ip), vehicle: saline with Tween-80
[9] = dose: 120.0 mg/kg/injection, schedule: Q01DX005 (ip), vehicle: saline with Tween-80
[10] = dose: 240.0 mg/kg/injection, schedule: Q01DX005 (ip), vehicle: saline with Tween-80
[11] = dose: 200.0 mg/kg/injection, schedule: Q01DX005 (ip), vehicle: saline with Tween-80
[12] = dose: 50.0 mg/kg/injection, schedule: Q01DX009 (ip), vehicle: saline with Tween-80

Measured: T/C

CCN(CC)C(=O)N1CC1
inactive: dose: 100.0 mg/kg/injection, schedule: Q04DX002 (ip), vehicle: saline 102 % of control | dose: 200.0 mg/kg/injection, schedule: Q04DX002 (ip), vehicle: saline 100 % of control

CCCC(CC)(C(=O)Nc1ccc2nc(C)cc(N)c2c1)C(=O)Nc1ccc2nc(C)cc(N)c2c1
inactive: [1] 91 % of control | [2] 93 % of control

Cc1nc(Cl)c2cnccn12
inactive: dose: 25.0 mg/kg/injection, schedule: Q04DX003 (ip), vehicle: saline 100 % of control | dose: 50.0 mg/kg/injection, schedule: Q04DX003 (ip), vehicle: saline 100 % of control

C#CCn1cnc2c(N)ncnc21
inactive: [3] 97 % of control | [4] 93 % of control

C/C(=N\NC(=S)NC12CC3CC(CC(C3)C1)C2)c1ccccn1
inactive: dose: 100.0 mg/kg/injection, schedule: Q04DX003 (ip), vehicle: saline with Tween-80 113 % of control | dose: 200.0 mg/kg/injection, schedule: Q04DX003 (ip), vehicle: saline with Tween-80 104 % of control

CN(C)c1ccc(/C=C/c2ccnc3c2ccc2ccccc23)cc1
inactive: dose: 37.5 mg/kg/injection, schedule: Q04DX003 (ip), vehicle: Klucel (hydroxypropylcellulose) (HPC) 108 % of control | dose: 50.0 mg/kg/injection, schedule: Q01DX001 (ip), vehicle: saline with Tween-80 106 % of control | dose: 75.0 mg/kg/injection, schedule: Q04DX003 (ip), vehicle: Klucel (hydroxypropylcellulose) (HPC) 89 % of control | [5] 93 % of control | dose: 150.0 mg/kg/injection, schedule: Q04DX003 (ip), vehicle: Klucel (hydroxypropylcellulose) (HPC) 103 % of control | [6] 91 % of control | dose: 300.0 mg/kg/injection, schedule: Q04DX003 (ip), vehicle: Klucel (hydroxypropylcellulose) (HPC) 96 % of control | [7] 91 % of control

Cc1cc(C)c2c(c1)CC(C)(C)CC2(O)C1CCCCN1 (stereo not given)
inactive: [3] 100 % of control | [4] 108 % of control

O=C1C(Cl)=C(N2CC2)C(=O)C(Cl)=C1N1CC1
active: dose: 2.5 mg/kg/injection, schedule: Q01DX009 (ip), vehicle: saline with Tween-80 155 % of control | dose: 5.0 mg/kg/injection, schedule: Q01DX009 (ip), vehicle: saline with Tween-80 155 % of control | dose: 10.0 mg/kg/injection, schedule: Q01DX009 (ip), vehicle: saline with Tween-80 155 % of control
inactive: dose: 0.08 mg/kg/injection, schedule: Q01DX009 (ip), vehicle: saline with Tween-80 105 % of control | dose: 0.16 mg/kg/injection, schedule: Q01DX009 (ip), vehicle: saline with Tween-80 112 % of control | dose: 0.31 mg/kg/injection, schedule: Q01DX009 (ip), vehicle: saline with Tween-80 122 % of control | dose: 0.63 mg/kg/injection, schedule: Q01DX009 (ip), vehicle: saline with Tween-80 124 % of control

CC(C)(C)NCc1cc(Nc2ccnc3cc(Cl)ccc23)cc(-c2ccc(Cl)cc2)c1O
inactive: dose: 15.0 mg/kg/injection, schedule: Q01DX005 (ip), vehicle: saline with Tween-80 100 % of control | dose: 30.0 mg/kg/injection, schedule: Q01DX005 (ip), vehicle: saline with Tween-80 100 % of control | [8] 95 % of control and 98 % of control | [9] 105 % of control | [10] 97 % of control

Cc1ccnc(NS(=O)(=O)c2ccc(NCc3c4ccccc4nc4cc(Cl)ccc34)cc2)n1
inactive: [8] 99 % of control | [9] 90 % of control | [10] 86 % of control

O=C(Nc1c[nH]c(=O)[nH]c1=O)C(Cl)Cl
inactive: dose: 3.12 mg/kg/injection, schedule: Q01DX009 (ip), vehicle: saline 93 % of control | dose: 6.25 mg/kg/injection, schedule: Q01DX009 (ip), vehicle: saline 97 % of control | dose: 12.5 mg/kg/injection, schedule: Q01DX009 (ip), vehicle: saline 101 % of control | dose: 25.0 mg/kg/injection, schedule: Q01DX009 (ip), vehicle: saline 100 % of control

C=CC1C(OC2OC(CO)C(O)C(O)C2O)OC=C(C(=O)OC)C1CC1CC(=O)CC(CC(=O)CCc2ccc(O)cc2)O1 (stereo not given)
inactive: dose: 18.75 mg/kg/injection, schedule: Q01DX005 (ip), vehicle: water 98 % of control | dose: 37.5 mg/kg/injection, schedule: Q01DX005 (ip), vehicle: water 101 % of control | dose: 75.0 mg/kg/injection, schedule: Q01DX005 (ip), vehicle: water 101 % of control | dose: 150.0 mg/kg/injection, schedule: Q01DX005 (ip), vehicle: water 101 % of control

O=c1cc(-c2ccccc2)c2cc3c(cc2[nH]1)oc1ccccc13
inactive: [8] 93 % of control | [9] 98 % of control | [10] 100 % of control

CC(C)(C)OC(=O)NC(CCCCNC(=O)C(F)(F)F)C(=O)O (stereo not given)
inactive: dose: 50.0 mg/kg/injection, schedule: Q01DX009 (ip), vehicle: Klucel (hydroxypropylcellulose) (HPC) 108 % of control | dose: 100.0 mg/kg/injection, schedule: Q01DX009 (ip), vehicle: Klucel (hydroxypropylcellulose) (HPC) 104 % of control | dose: 200.0 mg/kg/injection, schedule: Q01DX009 (ip), vehicle: Klucel (hydroxypropylcellulose) (HPC) 102 % of control

CSCCC(NC(=O)C(CC(C)C)NC(=O)OC(C)(C)C)C(N)=O (stereo not drawn) (Boc-Leu-Met-NH2; configuration not given here)
inactive: [3] 98 % of control | [4] 91 % of control | dose: 200.0 mg/kg/injection, schedule: Q01DX005 (ip), vehicle: Klucel (hydroxypropylcellulose) (HPC) 95 % of control

Cc1c2oc3c(C)ccc(C(=O)NC4C(=O)NC(C(C)C)C(=O)N(C)CC(=O)N(C)CC(=O)N(C)C(C(C)C)C(=O)OC4C)c3nc-2c(C(=O)NC2C(=O)NC(C(C)C)C(=O)N(C)CC(=O)N(C)CC(=O)N(C)C(C(C)C)C(=O)OC2C)c(N)c1=O (stereo not given) (I: TV[Sar][Sar][NMeV] / II: TV[Sar][Sar][NMeV]; ester I:1-I:C, II:1-II:C; linker I:N-II:N via Actinocin(9to1); configuration not given here)
active: dose: 0.1 mg/kg/injection, schedule: Q01DX009 (ip), vehicle: water 164 % of control | dose: 0.18 mg/kg/injection, schedule: Q01DX009 (ip), vehicle: other 166 % of control | dose: 0.2 mg/kg/injection, schedule: Q01DX009 (ip), vehicle: water 166 % of control | dose: 0.27 mg/kg/injection, schedule: Q01DX009 (ip), vehicle: other 202 % of control | dose: 0.4 mg/kg/injection, schedule: Q01DX009 (ip), vehicle: other 200 % of control | dose: 0.4 mg/kg/injection, schedule: Q01DX009 (ip), vehicle: water 205 % of control | dose: 0.6 mg/kg/injection, schedule: Q01DX009 (ip), vehicle: other 270 % of control | dose: 0.8 mg/kg/injection, schedule: Q01DX009 (ip), vehicle: water 156 % of control
inactive: dose: 1.6 mg/kg/injection, schedule: Q01DX009 (ip), vehicle: water 88 % of control

Cc1[nH]nc2c1CC(c1ccccc1)NC2=O (stereo not given)
inactive: [1] 92 % of control | [2] 94 % of control | [11] 94 % of control

O=C1c2cccnc2C(=O)C2CC3=C(CCCC3)CC12 (stereo not given)
inactive: [1] 100 % of control | [2] 100 % of control | [11] 100 % of control

O=c1c2c([nH]c(=S)n1-c1ccccc1)NCCC2
inactive: dose: 50.0 mg/kg/injection, schedule: Q04DX003 (ip), vehicle: Klucel (hydroxypropylcellulose) (HPC) 101 % of control | dose: 100.0 mg/kg/injection, schedule: Q04DX003 (ip), vehicle: Klucel (hydroxypropylcellulose) (HPC) 101 % of control | dose: 200.0 mg/kg/injection, schedule: Q04DX003 (ip), vehicle: Klucel (hydroxypropylcellulose) (HPC) 111 % of control

c1ccc(-c2nnc(-c3ccccc3)c3c2nn2ccc4ccccc4c32)cc1
inactive: [5] 90 % of control | [6] 89 % of control | [7] 103 % of control

COc1c(Br)cc(Br)cc1/C=C/[N+](=O)[O-]
inactive: [12] 123 % of control

O=C1CC2(CCc3ccccc32)C(=O)N1CN1CCN(CCO)CC1 (stereo not given)
inactive: dose: 50.0 mg/kg/injection, schedule: Q01DX005 (ip), vehicle: saline 106 % of control | dose: 100.0 mg/kg/injection, schedule: Q01DX005 (ip), vehicle: saline 110 % of control | dose: 200.0 mg/kg/injection, schedule: Q01DX005 (ip), vehicle: saline 115 % of control

CCCCOCCOS(=O)(=O)c1ccc(C)cc1
inactive: [12] 92 % of control | dose: 100.0 mg/kg/injection, schedule: Q01DX009 (ip), vehicle: saline with Tween-80 96 % of control | dose: 200.0 mg/kg/injection, schedule: Q01DX009 (ip), vehicle: saline with Tween-80 106 % of control

— PubChem BioAssay AID330 (DTP/NCI, 2004)
